We go through 1 molecule from patent EP0551200A1, “Protein phosphatase inhibitors for use in therapy” (priority 1992, dated 1993).

The test system of one assay is c-abl. Nature of the assay: Phosphorylation of cdc2 kinase substrate c-abl, immunoprecipitation. The class given is cell-based, human. Particulars: 50 units/ml TNF or 100 nM OA. Here is the method:
Where c-abl (top panel) or p53 (bottom panel) phosphorylation was measured, cells were treated for the times indicated with 50 units/ml TNF or 100 nM OA. Where RB (middle panel) phosphorylation was measured, cells were treated for 15 min with the indicated doses of TNF (in units/ml) or OA (in nM). Cell lysates were immunoprecipitated with antibodies to either c-abl, RB, or p53 (from Oncogene Science). The immunoprecipitated proteins were subjected to 6 or 10% SDS-PAGE and autoradiography. Note that in the middle panel, the lesser extent of RB phosphorylation observed with 500 nM OA as compared to 100 nM OA is due to the loading of about four times less amount of protein in the 500 nM OA than the 100 nM OA-treated sample to the gel. At either concentration of OA, the ratio of the hyperphosphorylated form of RB is higher than the hypophosphorylated form of RB.
Phosphorylation of cdc2 Kinase Substrates in Cells Treated with IL-1, TNF, or Okadaic Acid - It is noted from Fig. 1 (e and f) that the phosphorylation of myosin light chain and nucleolin are enhanced by TNF and okadaic acid treatment. Both proteins are known to be substrates of cdc2 kinase. In this connection, a question was raised as to whether other cdc2 kinase substrates which are known to be phosphorylated by okadaic acid treatment are also effected in TNF-treated human fibroblasts. […]

For another assay, the system named is Egr-1 mRNA. Nature of the assay: Stability of induced Egr-1 mRNA after actinomycin D, Northern blot, Balb/c 3T3 cells. Particulars: actinomycin D 25 µg/ml. The class given is cell-based, mouse. Here is the method: (A). Quiescent Balb/c 3T3 cells were incubated with either 0.5 µM of okadaic acid or 20% serum for 3 h or 0.5 h, respectively. Actimomycin D (final concentration being 25 µg/ml) was then added. The cells were then harvested at 0.5, 1, 1.5, 2 and 3 h after the addition of actinomycin D. RNA was isolated from these cells and analyzed by Northern blot. The blot was probed with Egr-1 or GADPH cDNA.
Quiescent mouse Balb/c 3T3 fibroblasts were incubated with DMEM containing either 0.5µM okadaic acid or 10% fetal calf serum for the times indicated in Fig. 10. […] Cells were harvested at the indicated time points and extracted for RNA and the RNA subjected to Northern blot analysis (Fig. 10).

A further assay relates to human fibroblasts. Nature of the assay: Total cellular protein synthesis in human fibroblasts. The class given is cell-based. Particulars: data not shown. Here is the method:
Quiescent human fibroblasts were stimulated with MEM containing 0.5 µM okadaic acid in the presence or absence of cycloheximide (10 µg/ml) for the times indicated in Fig. 11. […] Treatment of cells with cycloheximide enhanced the induction of Egr-1 mRNA by okadaic acid at 1.5 and 3 h (Fig. 11). Similarly puromycin, like cycloheximide, also "superinduces" the induction of the Egr-1 mRNA by okadaic acid (data not shown). […] However, in view that protein phosphatase 1 (PP1) and protein phosphatase 2A (PP2A) regulate enzymes associated with cellular protein synthesis (Cohen, Annu. Rev. Biochem. 58, 453-508, 1989) the effect of okadaic acid on protein synthesis in mouse and human fibroblasts was also measured. […] By then the Egr-1 mRNA message was already induced. A corollary to this is a comparison of the amount of ³⁵S-methionine labelled Egr-1 protein immunoprecipitated by R5232 antibodies from protein phosphatase inhibitor-treated and control cells. […] Thus, the induction of the Egr-1 gene by phosphatase inhibitors is unlikely to be mediated by their late inhibitory effects on cellular protein synthesis.

In general, inhibition refers to the change of the read-out against control, counted positive when it falls. A lower inhibition goes with a response near the control.

Some results are limits rather than exact numbers.

Regarding `C=C1[C@@H](O)[C@@H]2O[C@]3(CC[C@H](/C=C/[C@@H](C)[C@@H]4CC(C)=C[C@@]5(O[C@H](C[C@@](C)(O)C(=O)O)CC[C@H]5O)O4)O3)CC[C@H]2O[C@@H]1[C@@H](O)C[C@H](C)[C@H]1O[C@@]2(CCCCO2)CC[C@H]1C` [okadaic acid], the “phosphorylation of c-abl (in words)” value with c-abl is “enhanced the phosphorylation”. Also, in the assay with Egr-1 mRNA (0.5 µM), the “time for which induced Egr-1 mRNA is detectable after actinomycin D treatment” value was “up to 5.5 h”. The “half life of the induced Egr-1 message” value in the assay with Egr-1 mRNA (calculated from the data in Fig. 10) is recorded as “about 120 min”. In the assay on human fibroblasts (0.5 µM, first 2 h), the “effect on total cellular protein synthesis (in words)” value is given as “little measurable effect”. Moreover, the inhibition at 0.5 µM with human fibroblasts (Homo sapiens, Fibroblast, at 4 h) was not above 50%.
